According to patent US7875647B2, “Heteroaryl-pyrazole derivatives as cannabinoid CB1 receptor antagonists” (Green Cross Corporation, priority 2006, dated 2011):

What follows are molecules tested against T1, Cannabinoid-1 receptor (CB1R) (Rattus norvegicus, UniProt P20272) (assay: Cannabinoid-1 receptor (CB1R) binding affinity assay ([3H]CP-55940, rat CB-1 receptor binding protocol)). Details: IC50(nM), brain tissue of SD rats, [3H]CP-55940, 30° C. 60 min.
T1 construct: The tissue obtained from the brain of SD rats was homogenized; from tissue; host or cells: brain of SD rats (membrane pellet of the homogenate)
T1 sequence (P20272 whole entry): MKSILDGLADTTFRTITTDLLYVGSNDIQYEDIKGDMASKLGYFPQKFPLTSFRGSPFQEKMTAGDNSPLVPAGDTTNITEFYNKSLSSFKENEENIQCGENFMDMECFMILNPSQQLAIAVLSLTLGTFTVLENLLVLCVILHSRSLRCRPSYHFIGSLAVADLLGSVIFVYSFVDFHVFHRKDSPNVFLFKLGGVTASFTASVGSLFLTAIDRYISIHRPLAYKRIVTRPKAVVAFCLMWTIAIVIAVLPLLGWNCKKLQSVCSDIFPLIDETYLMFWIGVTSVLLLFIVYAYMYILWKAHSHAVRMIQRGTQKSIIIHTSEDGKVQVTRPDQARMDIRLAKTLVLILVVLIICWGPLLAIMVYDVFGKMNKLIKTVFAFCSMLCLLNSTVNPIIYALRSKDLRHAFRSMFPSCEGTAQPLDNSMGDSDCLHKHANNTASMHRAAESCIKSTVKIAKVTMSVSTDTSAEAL
`CC(C)(C)c1nnc(-c2nn(-c3ccc(Cl)cc3Cl)c(-c3ccc(Cl)cc3)c2C2CC2)s1` [Example 441, 2-tert-butyl-5-(5-(4-chlorophenyl)-4-cyclopropyl-1-(2,4-dichlorophenyl)-1H-pyrazol-3-yl)-1,3,4-thiadiazole] showed an IC50 of 29.8 nM.

Same assay, conditions: brain tissue of SD rats, [3H]CP-55940, 30° C. 60 min; read-out: IC50
With `Cc1c(-c2nnc(C3CCC3)s2)nn(-c2ccc(Cl)cc2Cl)c1-c1ccccc1` [Example 423, 2-cyclobutyl-5-(1-(2,4-dichlorophenyl)-4-methyl-5-phenyl-1H-pyrazol-3-yl)-1,3,4-thiadiazole] the IC50 was 168 nM.
Work on `Cc1c(-c2nnc(C3CCC3)s2)nn(-c2ccc(Cl)cc2)c1-c1ccc(Br)cc1` [Example 424, 2-(5-(4-bromophenyl)-1-(4-chlorophenyl)-4-methyl-1H-pyrazol-3-yl)-5-cyclobutyl-1,3,4-thiadiazole] yielded an IC50 of 966 nM.
`Cc1c(-c2nnc(C(C)(C)C)s2)nn(-c2ccccc2Cl)c1-c1ccc(Br)cc1` [Example 425, 2-(5-(4-bromophenyl)-1-(2-chlorophenyl)-4-methyl-1H-pyrazol-3-yl)-5-tert-butyl-1,3,4-thiadiazole] gave an IC50 of 11.2 nM.
`Cc1c(-c2nnc(C3CCC3)s2)nn(-c2ccccc2Cl)c1-c1ccc(Br)cc1` [Example 427, 2-(5-(4-bromophenyl)-1-(2-chlorophenyl)-4-methyl-1H-pyrazol-3-yl)-5-cyclobutyl-1,3,4-thiadiazole] gave an IC50 of 29.6 nM.
`CCC(C)c1nnc(-c2nn(-c3ccccc3Cl)c(-c3ccc(Br)cc3)c2C)s1` (stereo not drawn) [Example 428, 2-(5-(4-bromophenyl)-1-(2-chlorophenyl)-4-methyl-1H-pyrazol-3-yl)-5-sec-butyl-1,3,4-thiadiazole] gave an IC50 of 15.7 nM.
For `CCC(C)(C)c1nnc(-c2nn(-c3ccccc3Cl)c(-c3ccc(Br)cc3)c2C)s1` [Example 429, 2-(5-(4-bromophenyl)-1-(2-chlorophenyl)-4-methyl-1H-pyrazol-3-yl)-5-tert-pentyl-1,3,4-thiadiazole], the IC50 was 8.67 nM.
Work on `Cc1c(-c2nnc(C3(c4ccc(Cl)cc4)CC3)s2)nn(-c2ccc(Cl)cc2Cl)c1-c1ccc(Cl)cc1` [Example 430, 2-(5-(4-chlorophenyl)-1-(2,4-dichlorophenyl)-4-methyl-1H-pyrazol-3-yl)-5-(1-(4-chlorophenyl)cyclopropyl)-1,3,4-thiadiazole] yielded an IC50 of 13.9 nM.
With `Cc1c(-c2nnc(C3(c4ccc(Cl)cc4)CCC3)s2)nn(-c2ccc(Cl)cc2Cl)c1-c1ccc(Cl)cc1` [Example 431, 2-(5-(4-chlorophenyl)-1-(2,4-dichlorophenyl)-4-methyl-1H-pyrazol-3-yl)-5-(1-(4-chlorophenyl)cyclobutyl)-1,3,4-thiadiazole] the IC50 was 7.5 nM.
`CCc1c(-c2nnc(C3(c4ccc(Cl)cc4)CC3)s2)nn(-c2ccc(Cl)cc2Cl)c1-c1ccc(Br)cc1` [Example 432, 2-(5-(4-bromophenyl)-1-(2,4-dichlorophenyl)-4-ethyl-1H-pyrazol-3-yl)-5-(1-(4-chlorophenyl)cyclopropyl)-1,3,4-thiadiazole] gave an IC50 of 7.98 nM.
In the case of `Cc1c(-c2nnc(C3(c4ccc(Cl)cc4)CC3)s2)nn(-c2ccccc2Cl)c1-c1ccc(Cl)cc1` [Example 433, 2-(1-(2-chlorophenyl)-5-(4-chlorophenyl)-4-methyl-1H-pyrazol-3-yl)-5-(1-(4-chlorophenyl)cyclopropyl)-1,3,4-thiadiazole], the IC50 is reported as 7.53 nM.
Work on `Cc1c(-c2nnc(C(C)(C)C)s2)nn(-c2ccc(Cl)cc2Cl)c1-c1cccc(Cl)c1` [Example 434, 2-tert-butyl-5-(5-(3-chlorophenyl)-1-(2,4-dichlorophenyl)-4-methyl-1H-pyrazol-3-yl)-1,3,4-thiadiazole] yielded an IC50 of 172 nM.
In the case of `CCC(C)c1nnc(-c2nn(-c3ccc(Cl)cc3Cl)c(-c3cccc(Cl)c3)c2C)s1` (stereo not drawn) [Example 435, 2-sec-butyl-5-(5-(3-chlorophenyl)-1-(2,4-dichlorophenyl)-4-methyl-1H-pyrazol-3-yl)-1,3,4-thiadiazole], the IC50 is reported as 277 nM.
`Cc1c(-c2nnc(C3CCC3)s2)nn(-c2ccc(Cl)cc2Cl)c1-c1cccc(Cl)c1` [Example 436, 2-(5-(3-chlorophenyl)-1-(2,4-dichlorophenyl)-4-methyl-1H-pyrazol-3-yl)-5-cyclobutyl-1,3,4-thiadiazole] showed an IC50 of 893 nM.
Molecule `CCOC(C)(C)c1nnc(-c2nn(-c3ccc(Cl)cc3Cl)c(-c3ccc(Cl)cc3)c2C)s1` [Example 437, 2-(5-(4-chlorophenyl)-1-(2,4-dichlorophenyl)-4-methyl-1H-pyrazol-3-yl)-5-(2-ethoxypropan-2-yl)-1,3,4-thiadiazole] has an IC50 of 53.6 nM.
Work on `CCC(C)(C)c1nnc(-c2nn(-c3ccc(Cl)cc3Cl)c(-c3cccc(Cl)c3)c2C)s1` [Example 439, 2-(5-(3-Chlorophenyl)-1-(2,4-dichlorophenyl)-4-methyl-1H-pyrazol-3-yl)-5-tert-pentyl-1,3,4-thiadiazole] yielded an IC50 of 263 nM.
`Clc1ccc(-c2c(C3CC3)c(-c3nnc(C4CCCCC4)s3)nn2-c2ccc(Cl)cc2Cl)cc1` [Example 440, 2-(5-(4-chlorophenyl)-4-cyclopropyl-1-(2,4-dichlorophenyl)-1H-pyrazol-3-yl)-5-cyclohexyl-1,3,4-thiadiazole] showed an IC50 of 11 nM.
`Clc1ccc(-c2c(C3CC3)c(-c3nnc(C4CCC4)s3)nn2-c2ccc(Cl)cc2Cl)cc1` [Example 442, 2-(5-(4-chlorophenyl)-4-cyclopropyl-1-(2,4-dichlorophenyl)-1H-pyrazol-3-yl)-5-cyclobutyl-1,3,4-thiadiazole] was tested, and the IC50 was 18 nM.
`CCC(C)c1nnc(-c2nn(-c3ccc(Cl)cc3)c(-c3ccc(Cl)cc3)c2C)s1` (stereo not drawn) [Example 444, 2-(1,5-bis(4-chlorophenyl)-4-methyl-1H-pyrazol-3-yl)-5-sec-butyl-1,3,4-thiadiazole] showed an IC50 of 292 nM.
In the case of `Cc1c(-c2nnc(C3(c4ccc(Cl)cc4)CC3)s2)nn(-c2ccc(Cl)cc2)c1-c1ccc(Cl)cc1` [Example 447, 2-(1,5-bis(4-chlorophenyl)-4-methyl-1H-pyrazol-3-yl)-5-(1-(4-chlorophenyl)cyclopropyl)-1,3,4-thiadiazole], the IC50 is reported as 453 nM.
For `CCC(C)(C)c1nnc(-c2nn(-c3ccc(Cl)cc3)c(-c3ccc(Cl)cc3)c2C)s1` [Example 448, 2-(1,5-bis(4-chlorophenyl)-4-methyl-1H-pyrazol-3-yl)-5-tert-pentyl-1,3,4-thiadiazole], the IC50 was 199 nM.
`CCCOC(C)(C)c1nnc(-c2nn(-c3ccc(Cl)cc3Cl)c(-c3ccc(Cl)cc3)c2C)s1` [Example 449, 2-(5-(4-chlorophenyl)-1-(2,4-dichlorophenyl)-4-methyl-1H-pyrazol-3-yl)-5-(2-propoxypropan-2-yl)-1,3,4-thiadiazole] gave an IC50 of 61.3 nM.
`CCc1c(-c2nnc(C3(c4ccccc4)CC3)s2)nn(-c2ccc(Cl)cc2Cl)c1-c1ccc(Br)cc1` [Example 450, 2-(5-(4-bromophenyl)-1-(2,4-dichlorophenyl)-4-ethyl-1H-pyrazol-3-yl)-5-(1-phenylcyclopropyl)-1,3,4-thiadiazole] gave an IC50 of 7.42 nM.
Molecule `CCc1c(-c2nnc(C(C)(C)CC)s2)nn(-c2ccc(Cl)cc2Cl)c1-c1ccc(Br)cc1` [Example 451, 2-(5-(4-bromophenyl)-1-(2,4-dichlorophenyl)-4-ethyl-1H-pyrazol-3-yl)-5-tert-pentyl-1,3,4-thiadiazole] has an IC50 of 19.7 nM.
`CCc1c(-c2nnc(C3CC4CCC3C4)s2)nn(-c2ccc(Cl)cc2Cl)c1-c1ccc(Br)cc1` (stereo not drawn) [Example 452, 2-(bicyclo[2.2.1]heptan-2-yl)-5-(5-(4-bromophenyl)-1-(2,4-dichlorophenyl)-4-ethyl-1H-pyrazol-3-yl)-1,3,4-thiadiazole] was tested, and the IC50 was 54.1 nM.
`CCc1c(-c2nnc(C(C)C)s2)nn(-c2ccc(Cl)cc2Cl)c1-c1ccc(Br)cc1` [Example 453, 2-(5-(4-bromophenyl)-1-(2,4-dichlorophenyl)-4-ethyl-1H-pyrazol-3-yl)-5-isopropyl-1,3,4-thiadiazole] was tested, and the IC50 was 27.1 nM.
`CCc1c(-c2nnc(C(CC)CC)s2)nn(-c2ccc(Cl)cc2Cl)c1-c1ccc(Br)cc1` [Example 454, 2-(5-(4-bromophenyl)-1-(2,4-dichlorophenyl)-4-ethyl-1H-pyrazol-3-yl)-5-(pentan-3-yl)-1,3,4-thiadiazole] gave an IC50 of 23.1 nM.
With `CCc1c(-c2nnc(C3(C)CCCCC3)s2)nn(-c2ccc(Cl)cc2Cl)c1-c1ccc(Br)cc1` [Example 455, 2-(5-(4-bromophenyl)-1-(2,4-dichlorophenyl)-4-ethyl-1H-pyrazol-3-yl)-5-(1-methylcyclohexyl)-1,3,4-thiadiazole] the IC50 was 14.5 nM.
`C=CCOC(C)(C)c1nnc(-c2nn(-c3ccc(Cl)cc3Cl)c(-c3ccc(Cl)cc3)c2C)s1` [Example 456, 2-(2-(allyloxy)propan-2-yl)-5-(5-(4-chlorophenyl)-1-(2,4-dichlorophenyl)-4-methyl-1H-pyrazol-3-yl)-1,3,4-thiadiazole] gave an IC50 of 61 nM.
Molecule `CCCCOC(C)(C)c1nnc(-c2nn(-c3ccc(Cl)cc3Cl)c(-c3ccc(Cl)cc3)c2C)s1` [Example 457, 2-(2-butoxypropan-2-yl)-5-(5-(4-chlorophenyl)-1-(2,4-dichlorophenyl)-4-methyl-1H-pyrazol-3-yl)-1,3,4-thiadiazole] has an IC50 of 16.9 nM.
`COc1ccc(C2(c3nnc(-c4nn(-c5ccc(Cl)cc5Cl)c(-c5ccc(Cl)cc5)c4C)s3)CC2)cc1` [Example 458, 2-(5-(4-chlorophenyl)-1-(2,4-dichlorophenyl)-4-methyl-1H-pyrazol-3-yl)-5-(1-(4-methoxyphenyl)cyclopropyl)-1,3,4-thiadiazole] was tested, and the IC50 was 25.8 nM.
`Cc1c(-c2nnc(C3(c4ccc(Cl)cc4Cl)CC3)s2)nn(-c2ccc(Cl)cc2Cl)c1-c1ccc(Cl)cc1` [Example 459, 2-(5-(4-chlorophenyl)-1-(2,4-dichlorophenyl)-4-methyl-1H-pyrazol-3-yl)-5-(1-(2,4-dichlorophenyl)cyclopropyl)-1,3,4-thiadiazole] showed an IC50 of 10.8 nM.
`Cc1ccc(C2(c3nnc(-c4nn(-c5ccc(Cl)cc5Cl)c(-c5ccc(Cl)cc5)c4C)s3)CC2)cc1` [Example 460, 2-(5-(4-chlorophenyl)-1-(2,4-dichlorophenyl)-4-methyl-1H-pyrazol-3-yl)-5-(1-p-tolylcyclopropyl)-1,3,4-thiadiazole] gave an IC50 of 20.1 nM.
